Measurements published in the supplement of paper PMC11061612.

Key:
[1] = test system: TT (Thyroid Gland Carcinoma); assay: combination Emax (second highest fraction inhibited in the dose matrix, 72 h); higher = more inhibition; extreme values may be limits of the assay
In short: (§1)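 Bliss excess equals the observed combination effect minus the expected value EA + EB − EA·EB, where EA and EB are the effects of each agent alone. Combination Emax is the second-highest inhibition within the matrix. Inhibition was scaled from CellTiter-Glo 2.0 luminescence, with 0 set by vehicle wells and 1 by blank wells, after 72 hours of two-drug dosing of cells plated in 1536-well plates.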

[2] = test system: COLO-320-HSR (Colorectal Carcinoma); assay: as above
In short: as §1

[3] = test system: CCK-81 (Colorectal Carcinoma); assay: as above
In short: as §1

IGR-37 (Melanoma) = assay: as above
In short: as §1

[4] = test system: VCaP (Prostate Carcinoma); assay: as above
In short: as §1

PA-1 (Ovarian Carcinoma) = assay: as above
In short: as §1

[5] = test system: SISO (Cervical Carcinoma); assay: as above
In short: as §1

[6] = test system: COLO-824 (Breast Carcinoma); assay: as above
In short: as §1

FU97 (Gastric Carcinoma) = assay: as above
In short: as §1

[7] = test system: NCI-H1693 (Lung Adenocarcinoma); assay: as above
In short: as §1

LN-405 (Glioblastoma) = assay: as above
In short: as §1

[8] = test system: CAL-29 (Bladder Carcinoma); assay: as above
In short: as §1

[9] = test system: COR-L311 (Small Cell Lung Carcinoma); assay: as above
In short: as §1

[10] = test system: NCI-H2066 (Squamous Cell Lung Carcinoma); assay: as above
In short: as §1

[11] = test system: NCI-H1581 (Non-Small Cell Lung Carcinoma); assay: as above
In short: as §1

[12] = test system: MDST8 (Colorectal Carcinoma); assay: as above
In short: as §1

[13] = test system: KARPAS-422 (B-Cell Non-Hodgkin's Lymphoma); assay: as above
In short: as §1

[14] = test system: NCI-H2141 (Small Cell Lung Carcinoma); assay: Bliss excess, mean over the matrix (fraction); higher = more synergy
In short: as §1

[15] = test system: OS-RC-2 (Kidney Carcinoma); assay: as above
In short: as §1

[16] = test system: PANC-10-05 (Pancreatic Carcinoma); assay: as above
In short: as §1

| SMILES | combination Emax [1] | combination Emax [2] | combination Emax [3] | combination Emax (IGR-37 (Melanoma)) | combination Emax [4] | combination Emax (PA-1 (Ovarian Carcinoma)) | combination Emax [5] | combination Emax [6] | combination Emax (FU97 (Gastric Carcinoma)) | combination Emax [7] | combination Emax (LN-405 (Glioblastoma)) | combination Emax [8] | combination Emax [9] | combination Emax [10] | combination Emax [11] | combination Emax [12] | combination Emax [13] | Bliss excess [14] | Bliss excess [15] | Bliss excess [16] |
| --- | --- | --- | --- | --- | --- | --- | --- | --- | --- | --- | --- | --- | --- | --- | --- | --- | --- | --- | --- | --- |
| Cc1cc2ncnn2cc1Nc1ncc2c(n1)n(C1CCOCC1)c(=O)n2C [AZD7648] + CN(C)CCCOc1ccc(-c2ccc3ncc4c(c3c2)n(C2CCOCC2)c(=O)n4C)cn1 [AZD0156] (first compound max 10 µM, 7x7, partner max 1 µM) | 0.41 | 0.27 | 0.299 | 0.263 | 0.265 | 0.239 | 0.16 | 0.283 | 0.382 | 0.222 | 0.164 | 0.218 | 0.256 | 0.321 | 0.369 | 0.439 | 0.479 | 0.0033 | 0.0028 | -0.0059 |
| Cc1cc2ncnn2cc1Nc1ncc2c(n1)n(C1CCOCC1)c(=O)n2C [AZD7648] + C[C@@H]1COCCN1C2=NC(=NC(=C2)C3(CC3)[S@](=N)(=O)C)C4=C5C=CNC5=NC=C4 [AZD6738] (first compound max 10 µM, 7x7, partner max 10 µM) | 0.604 | 0.616 | 0.9 | 0.761 | 0.452 | 0.75 | 0.505 | 0.738 | 0.42 | 0.294 | 0.43 | 0.598 | 0.214 | 0.379 | 0.471 | 0.775 | 0.639 | 0.0088 | -0.0077 | 0.0487 |
| COc1nnc2ccc(N3CCC(c4ccc(OCCN5CCN(C)C(=O)[C@H]5C)cc4)CC3)nn12 [AZD5153] + C=CCn1c(=O)c2cnc(Nc3ccc(N4CCN(C)CC4)cc3)nc2n1-c1cccc(C(C)(C)O)n1 [AZD1775] (first compound max 1 µM, partner max 1 µM) | 0.563 | 0.661 | 0.869 | 0.775 | 0.767 | 0.973 | 0.65 | 0.863 | 0.792 | 0.565 | 0.535 | 0.524 | 0.946 | 0.475 | 0.866 | 0.461 | 0.888 | -0.021 | -0.0324 | -0.132 |
| CC(=O)c1c(C)c2cnc(Nc3ccc(N4CCNCC4)cn3)nc2n(C2CCCC2)c1=O [Palbociclib] + Cn1cnc2c(F)c(Nc3ccc(Br)cc3Cl)c(C(=O)NOCCO)cc21 [Selumetinib] (first compound max 10 µM, 7x7, partner max 10 µM) | 0.349 | 0.177 | 0.477 | 0.872 | 0.159 | 0.827 | 0.17 | 0.345 | 0.377 | 0.38 | 0.103 | 0.301 | 0.231 | 0.244 | 0.536 | 0.671 | 0.81 | -0.0432 | -0.0712 | -0.0409 |
| NC1(C(=O)N[C@@H](CCO)c2ccc(Cl)cc2)CCN(c2ncnc3[nH]ccc23)CC1 [Capivasertib] + C[C@@H]1COCCN1C2=NC(=NC(=C2)C3(CC3)[S@](=N)(=O)C)C4=C5C=CNC5=NC=C4 [AZD6738] (first compound max 10 µM, 7x7, partner max 10 µM) | 0.484 | 0.507 | 0.857 | 0.733 | 0.567 | 0.964 | 0.586 | 0.68 | 0.482 | 0.44 | 0.615 | 0.716 | 0.787 | 0.626 | 0.235 | 0.765 | 0.566 | 0.0049 | -0.0398 | -0.0946 |
| CC(=O)c1c(C)c2cnc(Nc3ccc(N4CCNCC4)cn3)nc2n(C2CCCC2)c1=O [Palbociclib] + Cc1c2c(nn1C)CSCc1cc(n(C)n1)CSc1cc(c3ccccc3c1)OCCCc1c(C(=O)O)n(C)c3c-2c(Cl)ccc13 [AZD5991] (first compound max 10 µM, 7x7, partner max 1 µM) | 0.419 | 0.965 | 0.941 | 0.325 | 0.855 | 0.872 | 0.127 | 0.708 | 0.222 | 0.431 | 0.208 | 0.175 | 0.534 | 0.198 | 0.951 | 0.223 | 0.966 | -0.0791 | -0.0419 | -0.0768 |
